Some test systems named below: DLD-1 colon; DMS 114 small cell lung; DMS 273 small cell lung; HOP-18 NSCLC; HOP-62 NSCLC; KM20L2 colon; LXFL 529 NSCLC; M19-MEL melanoma; MOLT-4 leukemia; RPMI-8226 leukemia; RXF-631 renal; SF-295 CNS; SN12C renal; XF 498 CNS; SNB-78 CNS.
Assay in all cases: NCI-60 cell line screen, 48 h

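Method: 48-hour compound exposure of cells in 96-well plates, five concentrations, linear interpolation of endpoints. At the GI50, growth is halved. TGI: total growth inhibition.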

For `CN(C)c1snc2c1c(=O)n(C)c(=O)n2C`, the TGI in the assay with DLD-1 colon, with DMS 114 small cell lung, in the assay on DMS 273 small cell lung, with HOP-18 NSCLC, in the assay with HOP-62 NSCLC and in the assay on KM20L2 colon was above 100 µM in each case. The TGI in the assay with LXFL 529 NSCLC, with M19-MEL melanoma, in the assay with MOLT-4 leukemia, with RPMI-8226 leukemia, with RXF-631 renal and in the assay on SF-295 CNS was above 100 µM in each case. For the same molecule, the TGI in the assay on SN12C renal and in the assay with XF 498 CNS was above 100 µM each time.

With `O=c1cc(-c2ccco2)[nH]c2cc3c(cc12)OCO3`, the TGI in the assay with DLD-1 colon was above 100 µM; with DMS 114 small cell lung, above 100 µM; with DMS 273 small cell lung, above 100 µM; in the assay on HOP-62 NSCLC it was 43.8 µM; in the assay on KM20L2 colon, 66.8 µM; with LXFL 529 NSCLC it was above 100 µM. In addition, the TGI in the assay with M19-MEL melanoma, with MOLT-4 leukemia, with RPMI-8226 leukemia, in the assay with RXF-631 renal, in the assay with SF-295 CNS and in the assay on SN12C renal was above 100 µM each time. This molecule also had a TGI in the assay on XF 498 CNS of 82.4 µM. The GI50 with DMS 114 small cell lung was 37.2 µM; with KM20L2 colon it was 21.2 µM; with SF-295 CNS it was 28.1 µM.

For the molecule `COC(=O)C(Br)C1CCc2ccccc21` (stereo not drawn), the TGI with DLD-1 colon, with DMS 114 small cell lung, in the assay on DMS 273 small cell lung, in the assay on HOP-18 NSCLC, in the assay on HOP-62 NSCLC and in the assay on KM20L2 colon was above 100 µM each time. Also, the TGI with LXFL 529 NSCLC, in the assay on M19-MEL melanoma, in the assay on MOLT-4 leukemia, with RPMI-8226 leukemia, in the assay on RXF-631 renal and in the assay with SF-295 CNS was above 100 µM throughout. The same molecule gave a TGI with SN12C renal above 100 µM.

As for `O=C1c2ccccc2C(=O)C1C(c1ccc(F)cc1)C1C(=O)c2ccccc2C1=O`, the TGI in the assay on DLD-1 colon, in the assay on DMS 114 small cell lung, with DMS 273 small cell lung, with HOP-18 NSCLC, in the assay with HOP-62 NSCLC and in the assay on KM20L2 colon was above 100 µM throughout. Besides, the TGI with LXFL 529 NSCLC, in the assay on M19-MEL melanoma, with MOLT-4 leukemia, in the assay on RPMI-8226 leukemia, in the assay on RXF-631 renal and in the assay on SF-295 CNS was above 100 µM throughout. Also, the TGI in the assay on SN12C renal, with SNB-78 CNS and with XF 498 CNS was above 100 µM in each case.
